Laboratory results published in PMC3514216, “SRC Homology 2 Domain Binding Sites in Insulin, IGF-1 and FGF receptor mediated signaling networks reveal an extensive potential interactome” (Cell Communication and Signaling : CCS, 2012).

How the values were obtained:
Type in all cases: binding
[1] = tested on: panel of 50 SH2 domains; assay: SPOT peptide array probed with each of 50 GST-SH2 domains; details: SH2 domains with intensity >3X array mean; GST-SH2 0.25 μM, 1 mM DTT
Summary of the method: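 Each GST-fused SH2 domain was overlaid on 192 membrane-synthesized pTyr peptides (11-mers, 4 N-terminal and 6 C-terminal flanking residues) and read with anti-GST and near-infrared secondary antibodies. Binding called relative to membrane mean intensity (>3× positive, <1× negative); GST-only probes defined nonspecific peptides.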

[2] = target: Grb2 SH2 domain (Homo sapiens, UniProt P62993); assay: SPOT peptide array; details: GST-SH2 0.25 μM, membrane-bound peptide, 1 mM DTT, LiCor read-out
Sequence of Grb2 SH2 domain (P62993 60-152 limits assumed): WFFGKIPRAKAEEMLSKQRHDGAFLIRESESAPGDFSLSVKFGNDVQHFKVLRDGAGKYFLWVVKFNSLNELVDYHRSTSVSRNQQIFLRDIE
Source text: (§1) The use of addressable peptide arrays is a reproducible and semi-quantitative approach that has been extensively validated for studying protein interactions with peptide ligands. To investigate connections between SH2 domain proteins and their putative phosphorylated docking sites on cell surface receptors, we developed addressable arrays consisting of 192 phosphotyrosine peptides. This peptide set was assembled using 71 phosphotyrosine peptide motifs corresponding to all of the cytoplasmic tyrosine residues within the FGF receptors (FGFR1-4), insulin receptor (InsR) and IGF-1 receptor (IGF-1R) (Figure 1A). Activation of these receptors results in the phosphorylation of associated scaffold proteins, and so 75 phosphotyrosine peptides corresponding to a comprehensive list of tyrosine residues within insulin receptor substrates (IRS-1 and IRS-2) and fibroblast receptor substrates (FRS-2 and FRS-3) were included. In addition, 33 phosphotyrosine peptides were incorporated from the downstream signaling proteins PLC-γ1, p130Cas (BCAR1) and p62DOK1. […] These control peptides provide a reference and establish the empirical cut-off for designated binding interactions (Table 1). No discrimination was made against peptides on the basis of reported phosphorylation state in order to examine a diverse and unbiased set of motifs. The resulting set of 192 phosphotyrosine peptides and their corresponding position in the proteins of origin is noted in Additional file 1: Table S1. Addressable arrays were synthesized as membrane-bound 11-mer peptides using the SPOT synthesis technique. While the majority of SH2 domains recognize residues C-terminal to the phosphotyrosine in their cognate peptide ligands, additional contacts between SH2 domains and residues N-terminal to the phosphotyrosine are observed for the SH2 domain of Sh2d1a (SAP) and cannot be ruled out in other cases. Peptides were synthesized with six flanking residues C-terminal to the phosphotyrosine and four residues N-terminal to the phosphotyrosine.
(§2) SH2 domains were arrayed as GST fusion proteins and detected using anti-GST primary antibodies and near-infrared labeled secondary antibodies. In an effort to present a dataset with minimal false positives, we chose an empirical cutoff based on the array average across all peptide spots to classify interactions (Figure 1A). In cases where the intensity of the signal for an individual SH2-domain binding event exceeded the mean intensity of all the peptides on the membrane by three-fold were scored as “array positives” [22]. Non-binding was judged in cases where the intensity of a spot was less than the mean intensity of all spots on the membrane and these were scored as “array negatives”. Peptides with signal intensities between 1X and 3X mean were scored as “indeterminate” and ascribed as neither array positive binding interactions nor array-negative non-binders. […] This signature may be indicative of promiscuity differences between phosphopeptides or there may be a subset of peptides which interact in a nonspecific fashion with either the GST fusion tag or one of the antibodies used for detection, resulting in false positives. Consistent with our goal of reducing the errors associated with identifying false-positives, we probed three separate arrays with three separate preps of the GST fusion tag alone. Potentially non-specificly interacting peptides (so-called ‘sticky’ peptides) were identified as any that bound to GST with above mean intensity in two out of three separate trials. This approach identifies any peptides which interact with GST or either of the recognition antibodies, a known confounding factor for downstream analysis. This conservative approach allows us to score many significant peptides as ‘binders’ which may have been indeterminate before when incorporating the ‘sticky’ peptides into the array average. […]

[3] = target: T1, Ptpn11_N SH2 domain (Homo sapiens, UniProt Q06124); assay: SPOT peptide array; details: GST-SH2 0.25 μM; for Array positive: membrane-bound peptide, 1 mM DTT, LiCor read-out; for Peptide array intensity (X mean): spot intensity as factor of array mean
T1 sequence (Q06124 6-102 limits assumed): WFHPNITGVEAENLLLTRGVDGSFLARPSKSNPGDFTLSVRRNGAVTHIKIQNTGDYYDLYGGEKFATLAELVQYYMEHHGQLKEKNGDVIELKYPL
Source text: as §1, §2

[4] = target: Crk SH2 domain (Homo sapiens, UniProt P46108); assay: SPOT peptide array; details: GST-SH2 0.25 μM, membrane-bound peptide, 1 mM DTT, LiCor read-out
Sequence of Crk SH2 domain (P46108 13-118 limits assumed): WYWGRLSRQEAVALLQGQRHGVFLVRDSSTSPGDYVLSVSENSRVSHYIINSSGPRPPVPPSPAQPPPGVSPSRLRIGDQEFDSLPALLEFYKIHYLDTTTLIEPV
Source text: as §1, §2

[5] = target: Nck1 SH2 domain (Homo sapiens, UniProt P16333); assay: SPOT peptide array; details: GST-SH2 0.25 μM; for Array positive: membrane-bound peptide, 1 mM DTT, LiCor read-out
Source text: as §1, §2

[6] = tested on: Plcγ-C SH2 domain; assay: SPOT peptide array; details: GST-SH2 0.25 μM; for Array positive: membrane-bound peptide, 1 mM DTT, LiCor read-out
Source text: as §1, §2

[7] = spot intensity as factor of array mean

Substance	Other SH2 domains bound (additional array-positive SH2 domains) [1]	Array positive [2]	other results
ALLNpYENLPSL [11-mer phosphotyrosine peptide, FRS2 (Y349)]	Abl1, Abl2, Gads, Grap, Grb2, Grb7, PI3K1_C, Sh2d2a, Sh3bp2	Yes (Array-positive binding was ascribed to interactions with intensities greater than three times the array mean)	
APVSpYADMRTG [11-mer phosphotyrosine peptide, IRS-1 (Y1012)]			Array positive [3]: No (Peptide spots with average intensity values between 1X-3X the array mean were defined as ‘indeterminate’. Those with intensities below 1X mean were defined as array negative); Peptide array intensity (X mean) [3]: 0.59 X Mean
ATDDpYAVPPPR [11-mer phosphotyrosine peptide, p62DOK1 (Y409), similar to p130Cas (Y410)]	Crkl, Hck		Array positive [4]: Yes (Array-positive binding was ascribed to interactions with intensities greater than three times the array mean)
DDPSpYVNVQNL [11-mer phosphotyrosine control peptide, ShcA (Y426), reference compound]	Gads, Grap	Yes (Array-positive binding was ascribed to interactions with intensities greater than three times the array mean)	
DPNGpYMMMSPS [11-mer phosphotyrosine peptide, IRS-1 (Y662)]			Array positive [3]: No (Peptide spots with average intensity values between 1X-3X the array mean were defined as ‘indeterminate’. Those with intensities below 1X mean were defined as array negative); Peptide array intensity (X mean) [3]: 0.54 X Mean
EDLSpYGDVPPG [11-mer phosphotyrosine peptide, IRS-1 (Y151)]	1.76X Mean Abl1, Blk, Fyn, Lck, Lyn, Sh2d1b, Shc1, Ship2, Slnk, Yes		Array positive [5]: No (Peptide spots with average intensity values between 1X-3X the array mean were defined as ‘indeterminate’. Those with intensities below 1X mean were defined as array negative); Peptide array intensity (X mean) [5, 7]: 1.76 X Mean
ELSNpYICMGGK [11-mer phosphotyrosine peptide, IRS-1 (Y465)]			Array positive [3]: No (Peptide spots with average intensity values between 1X-3X the array mean were defined as ‘indeterminate’. Those with intensities below 1X mean were defined as array negative); Peptide array intensity (X mean) [3]: 0.9 X Mean
EQDEYDIPRHL [11-mer peptide, p130Cas (Y234)]	Brk, Crkl, Fyn, Lck, Lyn, Shc1, Yes		Array positive [4]: Yes (Array-positive binding was ascribed to interactions with intensities greater than three times the array mean)
GGEFpYGYMTMD [11-mer phosphotyrosine peptide, IRS-2 (Y540)]	Dapp1, Grb7		Array positive [6]: Yes (Array-positive binding was ascribed to interactions with intensities greater than three times the array mean)
NKLVpYENINGL [11-mer phosphotyrosine peptide, FRS2 (Y306)]	Grap, Grb7, Sh2d2a	Yes (Array-positive binding was ascribed to interactions with intensities greater than three times the array mean)	
NPGFpYVEANPM [11-mer phosphotyrosine peptide, PLCγ1 (Y783)]	PLCγ_C at 1.03X mean; Zap70_N		Array positive [6]: No (Peptide spots with average intensity values between 1X-3X the array mean were defined as ‘indeterminate’. Those with intensities below 1X mean were defined as array negative); Peptide array intensity (X mean) [6, 7]: 1.03 X Mean
PMHNpYVNTENV [11-mer phosphotyrosine peptide, FRS2 (Y392)]	Gads, Grap	Yes (Array-positive binding was ascribed to interactions with intensities greater than three times the array mean)	
PNGDpYLNVSPS [11-mer phosphotyrosine peptide, IRS-2 (Y766)]	Sh2d1b, Vav1	Yes (Array-positive binding was ascribed to interactions with intensities greater than three times the array mean)	
PQDIYDVPPVR [11-mer peptide, P130Cas (Y249)]	Crkl, Zap70_N		Array positive [4]: Yes (Array-positive binding was ascribed to interactions with intensities greater than three times the array mean)
QVHTpYVNTTGV [11-mer phosphotyrosine peptide, FRS2 (Y196)]	Abl2, Gads, Grap, PI3K1_C	Yes (Array-positive binding was ascribed to interactions with intensities greater than three times the array mean)	
RQLNpYIQVDLE [11-mer phosphotyrosine peptide, FRS2 (Y436)]	Itk, Mist, PLCγ_C, Rasa1_N, Shb, Shd, She, Syk_C		Array positive [3]: Yes (Array-positive binding was ascribed to interactions with intensities greater than three times the array mean)
SDDDpYDDVDIP [11-mer phosphotyrosine control peptide, HPK1 (Y379), reference compound]	Fer, SLNK (similar to BLNK and SLP76)		Array positive [5]: Yes (Array-positive binding was ascribed to interactions with intensities greater than three times the array mean)
SIEEpYTEMMPA [11-mer phosphotyrosine peptide, IRS-1 (Y551)]			Array positive [3]: No (Peptide spots with average intensity values between 1X-3X the array mean were defined as ‘indeterminate’. Those with intensities below 1X mean were defined as array negative); Peptide array intensity (X mean) [3]: 0.56 X Mean
TRDIpYETDpYpYR [triply phosphorylated peptide, InsR (Y1185,89,90)]	Crk, Crkl, Fer, Grb7, PI3K1_C		Array positive [6]: Yes (Array-positive binding was ascribed to interactions with intensities greater than three times the array mean)
